The target of assay [1] is Beta-lactamase OXA-1 (Escherichia coli) (UniProt P13661). Description: Tested for inhibitory activity against beta-lactamase (groupV) Escherichia coli RGN in presence of ampicillin + 80 ug/mL of compound.
For assay [2], the target named is Beta-lactamase TEM (Escherichia coli) (UniProt P62593). Description: Tested for inhibitory activity against beta-lactamase (groupIII) Escherichia coli RPI in presence of ampicillin + 80 ug/mL of compound.
Assay [3] has as its target Beta-lactamase OXA-1 (Escherichia coli) (UniProt P13661). Briefly: Tested for inhibitory activity against beta-lactamase (groupV) Escherichia coli RGN in presence of ampicillin + 20 ug/mL of compound.
In assay [4] the target is Beta-lactamase TEM (Escherichia coli) (UniProt P62593). Description: Tested for inhibitory activity against beta-lactamase (groupIII) Escherichia coli RPI in presence of ampicillin + 20 ug/mL of compound.
Assay [5] concerns the target Beta-lactamase OXA-1 (Escherichia coli) (UniProt P13661). Briefly: Tested for inhibitory activity against beta-lactamase (groupV) Escherichia coli R57b in presence of ampicillin + 20 ug/mL of compound.
The target in assay [6] is T1, Beta-lactamase OXA-9 (Klebsiella aerogenes) (UniProt P0A3M4).
T1 sequence (whole entry): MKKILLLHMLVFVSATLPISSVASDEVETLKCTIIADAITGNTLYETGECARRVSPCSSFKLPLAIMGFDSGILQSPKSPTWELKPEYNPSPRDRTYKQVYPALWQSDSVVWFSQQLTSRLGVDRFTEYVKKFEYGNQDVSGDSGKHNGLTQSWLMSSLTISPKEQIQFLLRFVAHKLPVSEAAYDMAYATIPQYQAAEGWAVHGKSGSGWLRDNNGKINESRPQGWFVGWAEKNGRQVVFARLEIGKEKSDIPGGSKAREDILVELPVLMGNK
Briefly: Tested for inhibitory activity against beta-lactamase (groupIV) Klebsiella aerogenes 1082E in presence of ampicillin + 20 ug/mL of compound.

The target in assay [7] is Beta-lactamase (Staphylococcus aureus) (UniProt P00807). Description: Tested for inhibitory activity against beta-lactamase (groupII) staphylococcus aureus 39/2 strain in presence of ampicillin + 80 ug/mL of compound.
The target in assay [8] is T1, Beta-lactamase OXA-9 (Klebsiella aerogenes). Description: Tested for inhibitory activity against beta-lactamase (groupIV) Klebsiella aerogenes 1082E in presence of ampicillin + 80 ug/mL of compound.
Assay [9] concerns the target Beta-lactamase (Enterobacter cloacae) (UniProt P05364). Description: Tested for inhibitory activity against beta-lactamase (groupI) Enterobacter cloacae P99 in presence of ampicillin + 80 ug/mL of compound.
In assay [10] the target is Beta-lactamase (Staphylococcus aureus) (UniProt P00807). Briefly: Tested for inhibitory activity against beta-lactamase (groupII) staphylococcus aureus 39/2 strain in presence of ampicillin + 20 ug/mL of compound.
The target in assay [11] is Beta-lactamase OXA-1 (Escherichia coli) (UniProt P13661). Description: Tested for inhibitory activity against beta-lactamase (groupV) Escherichia coli R57b in presence of ampicillin + 80 ug/mL of compound.
Assay [12] shares this target. Briefly: Tested for inhibitory activity against beta-lactamase (groupV) Escherichia coli R57b.
The target in assay [13] is Beta-lactamase (Enterobacter cloacae) (UniProt P05364). Briefly: Tested for inhibitory activity against beta-lactamase (groupI) Enterobacter cloacae P99.
Assay [14] deals with Beta-lactamase TEM (Escherichia coli) (UniProt P62593). Briefly: Tested for inhibitory activity against beta-lactamase (groupIII) Escherichia coli RPI.
In assay [15] the target is Beta-lactamase OXA-1 (Escherichia coli) (UniProt P13661). Description: Tested for inhibitory activity against beta-lactamase (groupV) Escherichia coli RGN.
In assay [16] the target is Beta-lactamase (Staphylococcus aureus) (UniProt P00807). Description: Tested for inhibitory activity against beta-lactamase (groupII) staphylococcus aureus 39/2 strain.
The target of assay [17] is T1, Beta-lactamase OXA-9 (Klebsiella aerogenes). Briefly: Tested for inhibitory activity against beta-lactamase (groupIV) Klebsiella aerogenes 1082E.

SMILES strings stand for the structures. ≈ marks a conversion by molar mass, not a printed value. A value given as a limit tells only on which side of the number the result lay.

Beta-lactamase (Enterobacter cloacae), sequence (P05364 21-381 limits assumed): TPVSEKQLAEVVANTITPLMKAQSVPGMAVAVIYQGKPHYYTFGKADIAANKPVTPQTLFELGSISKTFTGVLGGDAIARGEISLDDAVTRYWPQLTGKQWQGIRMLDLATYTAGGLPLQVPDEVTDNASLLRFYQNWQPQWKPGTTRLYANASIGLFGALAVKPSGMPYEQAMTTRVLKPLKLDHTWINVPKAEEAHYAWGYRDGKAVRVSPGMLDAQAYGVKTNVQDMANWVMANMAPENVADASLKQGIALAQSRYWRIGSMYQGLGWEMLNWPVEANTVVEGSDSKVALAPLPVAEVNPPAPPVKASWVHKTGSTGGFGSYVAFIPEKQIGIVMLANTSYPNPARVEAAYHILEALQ
Beta-lactamase TEM (Escherichia coli), sequence (P62593 whole entry): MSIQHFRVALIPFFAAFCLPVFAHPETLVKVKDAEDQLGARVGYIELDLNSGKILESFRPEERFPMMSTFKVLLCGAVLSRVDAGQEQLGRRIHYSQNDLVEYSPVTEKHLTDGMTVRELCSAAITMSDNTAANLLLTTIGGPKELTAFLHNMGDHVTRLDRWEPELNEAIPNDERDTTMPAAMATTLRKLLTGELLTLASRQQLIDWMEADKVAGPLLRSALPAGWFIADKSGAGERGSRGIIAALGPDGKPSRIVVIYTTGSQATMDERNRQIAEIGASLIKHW
Beta-lactamase OXA-1 (Escherichia coli), sequence (P13661 whole entry): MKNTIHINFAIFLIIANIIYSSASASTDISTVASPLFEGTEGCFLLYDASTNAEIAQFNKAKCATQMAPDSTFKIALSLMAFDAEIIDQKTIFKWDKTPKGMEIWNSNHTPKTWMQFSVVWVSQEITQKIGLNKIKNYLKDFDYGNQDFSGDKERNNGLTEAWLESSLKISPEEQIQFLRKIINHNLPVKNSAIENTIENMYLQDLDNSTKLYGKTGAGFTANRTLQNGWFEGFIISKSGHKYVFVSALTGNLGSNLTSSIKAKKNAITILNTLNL
Beta-lactamase (Staphylococcus aureus), sequence (P00807 whole entry): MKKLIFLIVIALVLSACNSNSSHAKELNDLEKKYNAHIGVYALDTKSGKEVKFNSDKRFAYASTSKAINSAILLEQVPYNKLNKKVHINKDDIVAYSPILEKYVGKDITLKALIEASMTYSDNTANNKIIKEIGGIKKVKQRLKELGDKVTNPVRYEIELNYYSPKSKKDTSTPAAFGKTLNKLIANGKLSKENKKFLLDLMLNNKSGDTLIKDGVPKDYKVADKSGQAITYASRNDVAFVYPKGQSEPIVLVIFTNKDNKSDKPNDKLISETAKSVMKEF

For `C[C@H](O)[C@H]1C(=O)N2[C@@H]1S/C(=C\CO)[C@@H]2C(=O)O`, the MIC is 3.12 µg/mL in assay [1]; greater than 100 µg/mL in [2]; 6.25 µg/mL in assay [3]; greater than 100 µg/mL in assay [4]; 6.25 µg/mL in assay [5]; greater than 100 µg/mL in assay [6]. Moreover, the MIC was less than 0.39 µg/mL in [7]; greater than 100 µg/mL in [8]; greater than 100 µg/mL in [9]; less than 0.39 µg/mL in assay [10]; 1.56 µg/mL in assay [11].

In the case of `CC1(C)S[C@@H]2[C@H](NC(=O)[C@H](N)c3ccccc3)C(=O)N2[C@H]1C(=O)O`, the MIC in [12] is 100 µg/mL (≈ 286 µM); in [13] it was greater than 100 µg/mL; in [14], greater than 100 µg/mL; in assay [15], 12.5 µg/mL (≈ 35.8 µM); in [16], 1.56 µg/mL (≈ 4.46 µM); in assay [17], greater than 100 µg/mL.

The values are drawn from ChEMBL document CHEMBL1127139, “Synthesis and -lactamase inhibitory activity of 6-hydroxyethyl thiaclavulanic acid” (Bioorg Med Chem Lett, 1993).
